# Reference: patent US20200208108A1, “INTERFERON PRIMED PLASMACYTOID DENDRITIC CELLS” (AARHUS UNIVERSITET, priority 2017, published 2020)
# Key:
# Type in all cases: cell-based, human
# [1] = test system: HSPC-pDCs; assay: Phenotypic analysis of pDC-related and maturation surface markers by flow cytometry; details: priming from day 21, with IL-3
# Method: (§1) HSPC-pDCs were cultured in RPMI-1640 medium with 10% heat inactivated FCS, 600 μg/mL L-glutamine, 200 U/mL penicillin and 100 μg/mL streptomycin, but depleted for growth factors used for the cultivation process. As described in individual figure legends, medium was supplemented with IFN-β (PBL Assay Science), IFN-γ (PeproTech) or both cytokines simultaneously (IFN-β+γ). After 24 (day 21+1) or 72 (day 21+3) hours, cells were washed in warm medium, and phenotypically or functionally characterized.
# (§2) For functional characterization, cells were seeded in 96-well plates. During stimulation cells were kept in medium with 20 ng/mL IL-3. Twenty hours post stimulation supernatants were harvested and kept at −20° C. until cytokine quantifications. For phenotypic characterization, primed cells were seeded out in 48-well plates and stimulated for 24 hours before phenotypic analysis by flow cytometry.
# Immunophenotypical analysis was performed using flow cytometry. Briefly, 2×10^5 cells were spun down and resuspended in PBS with 0.5% BSA and 0.09% NaN3. […] Fluorescence intensities were measured on a LSR Fortessa flow cytometer (Becton Dickinson) with four lasers (405, 488, 561 and 640 nm) and 18 photomultiplier (PMT) detectors. […] Data were analyzed using FlowJo software (version 10, Tree Star, Ashland, Oreg., USA). […]
# [2] = test system: HSPC-pDCs; assay: Functional type I IFN in supernatants after TLR7/TLR9 agonist stimulation (HEK-Blue IFN-α/β reporter); details: separate priming; TLR7 and TLR9 agonists
# Method: as §1, §2
# Bioactive functional type I IFN was quantified in supernatants using the reporter cell line HEK-Blue™ IFN-α/β (Invivogen). The cell line was maintained in DMEM+GlutaMax™-I (Gibco®, Life Technologies), supplemented with 10% heat-inactivated FCS, 100 μg/mL streptomycin and 200 U/mL penicillin, 100 μg/mL normocin (InvivoGen), 30 μg/mL blasticidin (InvivoGen) and 100 μg/mL zeocin (InvivoGen). […] SEAP activity was assessed by measuring optical density (OD) at 620 nm on a microplate reader (ELx808, BioTEK). […]
# [3] = test system: HSPC-pDCs; assay: IL-6 in supernatants after TLR7/TLR9 agonist stimulation (ELISA); details: separate priming; TLR7 and TLR9 agonists
# Method: as §1, §2
# Protein levels of IL-6 in supernatants were evaluated using ELISA kits (Biolegend) following the manufacturers instructions.
substance,measurement,setting,value
IFN-γ: recombinant IFN-γ (PeproTech) used for priming,expression levels of CD303 and CD304 on HSPC-pDCs after priming,[1],improved
same,promotion of type I IFN response in comparison to IFN-β,[2],less effective
same,secretion of IL-6 by primed HSPC-pDCs,[3],predominantly promoted
